{
  "source": "paper PMC7305224",
  "about": "“Mutually stabilizing interactions between proto-peptides and RNA” (Nature Communications, 2020)",
  "key": {"[1]": {"tested_on": "RNA duplex 1", "assay": "Depsipeptide hydrolysis assay with or without RNA duplex 1, SimFit modelling", "assay_type": "physicochemical", "excerpt": "Fig. 5 RNA increases the hydrolytic lifetime of a cationic depsipeptide. a A schematic of depsipeptide-RNA interactions leading to increased depsipeptide lifetimes. The free depsipeptide is hydrolyzed with a pseudo-first rate constant, khyd-free. Binding of the depsipeptide to RNA is governed at equilibrium by kassoc/kdissoc. The pseudo-first rate constant for of depsipeptide hydrolysis within the depsipeptide–RNA complex is khyd-complex. Under conditions where complex formation is favorable and khyd-complex < khyd-free, the presence of RNA will increase the depsipeptide lifetime. b HPLC traces (270 nm) showing hydrolysis of depsipeptide 9 (25 μM) at various time points in the presence or absence of RNA duplex 1 at 37 °C in pH 7.3 buffer. The C-terminal fragment of the hydrolyzed depsipeptide is not observed because it lacks the Aba chromophore. (c) Time courses for hydrolysis of depsipeptide 9 (25 μM) with varying concentrations of the RNA duplex 1. The curves shown are from simultaneous fits of data to the model given in panel a using SimFit[44]. During fitting, we fixed kassoc = 1 × 10^5 M^−1 s^−1. Therefore, three rate constants were fit, with values obtained by the fitting of: khyd-free = 1.1 × 10^−4 s^−1, khyd-complex = 3.2 × 10^−6 s^−1, and kdissoc = 8.3 × 10^−3 s^−1. d Kinetic profile of the hydrolysis reaction of depsipeptide 9 (25 μM) in the presence of 7 μM RNA duplex 1. […] The extent of depsipeptide hydrolysis and RNA hybridization were then measured. Data are shown as a scatter plot of two independently repeated experiments.\n(§1) To determine the extent of depsipeptide hydrolysis, the depsipeptide (25 μM) was incubated at 37 °C in buffer (100 mM HEPES, 10 mM NaCl, pH 7.3) in the presence or absence of 10mer RNA duplex 1 (5′-rCrGrArUrUrUrArGrCrG-3′ and 3′-rGrCrUrArArArUrCrGrC-5′) at various concentrations, or with single-stranded RNA (5′-rCrGrArUrUrUrArGrCrG-3′, 100 μM), for up to 100 h. Prior to adding depsipeptide to the reaction from its stock solution, the RNA was annealed by heating to 75 °C for 5 min, and then slowly cooling to room temperature. Reaction aliquots were quenched using 3% TFA and frozen or immediately analyzed by HPLC (270 nm). The relative concentrations of intact and hydrolyzed depsipeptide were quantified by integrating the corresponding peaks in HPLC traces. The kinetic profiles of depsipeptide hydrolysis were fit using SimFit-32 (provided by G. von Kiedrowski) according to the reaction scheme shown in Fig. 5a.\nData from the nine independent depsipeptide hydrolysis reactions carried out with different concentrations of RNA duplex were simultaneously fit using SimFit to the reaction model shown in Fig. 5a. In the model, the free depsipeptide is subject to hydrolysis at a pseudo-first order rate governed by khyd-free. Binding of the depsipeptide to RNA according to an equilibrium determined by kassoc/kdissoc yields a depsipeptide-RNA complex, for which the pseudo-first order rate of ester hydrolysis is described by khyd-complex. During fitting, we fixed kassoc = 1 × 10^5 M^−1 s^−1, on the lower end of rates observed and expected for protein–RNA association. Therefore, three parameters were variable during the fitting, and the final rate constants determined by the fitting were: khyd-free = 1.1 × 10^−4 s^−1, khyd-complex = 3.2 × 10^−6 s^−1, and kdissoc = 8.3 × 10^−3 s^−1. […] Our model assumes a 1:1 stoichiometry for depsipeptide:RNA in the complex, and assumes the RNA is present only as a duplex (ignores steps involving RNA strand hybridization to form the duplex). The final RMS error of the fit was 5.4%. The output file obtained from the fitting is provided in the Supplementary Note."}, "[2]": {"tested_on": "single-stranded 10mer RNA (5′-rCrGrArUrUrUrArGrCrG-3′)", "assay": "Depsipeptide hydrolysis assay with single-stranded RNA", "assay_type": "physicochemical", "conditions": "25 μM depsipeptide, single-stranded 10mer RNA 100 µM, 37 °C, pH 7.3 buffer, HPLC", "experimental": "as §1"}, "[3]": {"tested_on": "RNA duplex 2 (5′-rArArArArUrUrUrArUrArUrUrArUrUrA-3′ and 5′-rUrArArUrArArUrArUrArArArUrUrUrU-3′)", "assay": "RNA thermal denaturation (Tm) by UV hyperchromicity, RNA duplex 2", "assay_type": "binding", "experimental": "Prior to Tm analyses, RNA samples were annealed in the appropriate buffer by heating to 75 °C and slowly cooling to room temperature. Depsipeptide/peptide was added to the annealed RNA and incubated at 4 °C for 20 min prior to carrying out the analysis. For analyses involving dry-down reaction mixtures, the Tm was determined by monitoring fluorescence increase upon melting of a fluorophore/quencher-labeled RNA duplex (5′-rCrGrArUrUrUrArGrCrG-/3IABkFQ/-3′ and 3′-rGrCrUrArArArUrCrGrC-FAM-5′) using a BioRad CFX Connect rtPCR instrument with a heating ramp of 1 °C/min and 20 μL final sample volumes. For analyses involving pure, synthetic compounds, the Tm of the RNA was determined by monitoring UV hyperchromicity at 260 nm using a Varian Cary Bio-100 spectrophotometer, with a heating ramp of 1 °C/min and 0.5- or 1-cm pathlength cells. The following RNA sequences were used: RNA duplex 1 = 5′-rCrGrCrUrArArArUrCrG-3′ and 5′-rCrGrArUrUrUrArGrCrG-3′; RNA duplex 2 = 5′-rArArArArUrUrUrArUrArUrUrArUrUrA-3′ and 5′-rUrArArUrArArUrArUrArArArUrUrUrU-3′; RNA duplex 3 = 5′-rArArCrGrUrArUrArCrGrUrU-3′ (palindromic); and H26a RNA = 5′-rArUrGrArGrUrArArCrCrGrUrArArGrGrUrGrArArArUrU-3′. RNA was present in each assay at a final concentration of 2.5 μM of the folded structure (2.5 μM each strand for duplex 1 and duplex 2, 5.0 μM palindromic strand for duplex 3, 2.5 μM strand for H26a RNA). Tm values were determined by nonlinear fitting of the melting curves using GraphPad Prism 8.2.1 for duplex 1 and H26a, or by finding the maximum of the first derivative of the curve using the Varian Cary Bio-100 software for duplex 2 and duplex 3. Both methods of determining the Tm gave similar values for a given denaturation curve."}, "[4]": {"conditions": "SimFit results output file, final NEWTON values"}},
  "data": [
    {"substance": "Aba-Gly-Ala-Dab-Lys-Ala-Dab-Lys-lac-Dab-Lys-Ala-Dab-Lys-NH2 [compound 9]", "values": [
      {"measurement": "level of intact depsipeptide with RNA vs depsipeptide alone", "setting": "[1]; 25 μM depsipeptide ± RNA duplex 1 (25 μM each strand), 37 °C, 12 h, HPLC", "value": "substantially higher levels"},
      {"measurement": "increase of observed depsipeptide lifetime by RNA duplex", "setting": "[1]; 25 μM depsipeptide, RNA duplex 1, 37 °C, pH 7.3 buffer, HPLC", "value": "~ 30 fold"},
      {"measurement": "kdissoc (depsipeptide–RNA complex)", "setting": "[1]; SimFit fit of hydrolysis data with kassoc fixed at 1 × 10^5 M^−1 s^−1, 37 °C, pH 7.3", "value": 0.0083, "unit": "s⁻¹"},
      {"measurement": "k2 (SimFit output; kdissoc)", "setting": "[1]; [4]", "value": "8.2871E-3"},
      {"measurement": "k3 (SimFit output; khyd-complex)", "setting": "[1]; [4]", "value": "3.1996E-6"},
      {"measurement": "k1 (SimFit output; khyd-free)", "setting": "[1]; SimFit results output file, final NEWTON values, R.M.S. 5.4087 %", "value": "1.0596E-4"},
      {"measurement": "Kd", "setting": "[1]; from fixed kassoc and calculated kdissoc, read-out: predicted dissociation constant of the depsipeptide-RNA complex", "value": 100, "unit": "nM"},
      {"measurement": "fold by which khyd-complex is lower than khyd-free", "setting": "[1]; ratio of fitted rate constants", "value": "~ 34 fold"},
      {"measurement": "increase of depsipeptide lifetime by single-stranded RNA", "setting": "[2]", "value": "roughly fivefold"},
      {"measurement": "RNA duplex 2 Tm", "setting": "[3]; observed Tm with peptide/depsipeptide 100 µM, pH 7.0, RNA alone 33.7 ± 0.7, mean ± SD of 2-4 independent experiments", "value": "41.8 ± 0.6", "unit": "°C"},
      {"measurement": "RNA duplex 2 ΔTm", "setting": "[3]; peptide/depsipeptide 100 μM, RNA 2.5 μM each strand, pH 7.0, 10 mM phosphate, 100 mM NaCl, mean of 2–4 replicates", "value": 8.2, "unit": "°C"}
    ]}
  ]
}
